Test results taken from patent US6350786B1, “Stable complexes of poorly soluble compounds in ionic polymers” (Hoffmann-La Roche Inc., priority 1998, dated 2002).

Test: Solubility (aqueous / gastrointestinal fluids)
Assay type: physicochemical

solubility in gastrointestinal fluids: practically insoluble
SMILES: CCOC(=O)C(Cc1ccc(NC(=O)c2c(Cl)cccc2Cl)cc1)NC(=O)c1c(C)cccc1Cl (stereo not shown) [Compound II]
